From patent US11629201B2, “PSMA-binding agents and uses thereof” (ITM Isotope Technologies Munich SE, priority 2017, dated 2023)
“And” between values parts separate entries of the source, which are not always exact repeats. Equal values may be shown once.

Assays:
mouse plasma proteins = experiment: Ultrafiltration assay, binding to mouse plasma proteins; assay type: in vitro ADME
Protocol: Filter Assay. […] In addition, the radioligands were diluted in PBS (buffer solution without proteins) as a control experiment. Aliquots of the solutions were loaded onto an ultrafiltration device and centrifuged. The filtered activity was measured with a γ-counter and used for calculating the plasma protein-bound activity (retained on the filter membrane) as the percentage of total added activity. […] Statistical analysis (one-way ANOVA with Bonferroni's multiple comparison post-test) was performed using GraphPad Prism software, version 7. A p-value of <0.05 was considered statistically significant.

[1] = tested on: PSMA-positive PC-3 PIP cells; experiment: Cell uptake and internalization in PSMA-positive PC-3 PIP cells; assay type: cell-based
human plasma proteins = experiment: Ultrafiltration assay, binding to human plasma proteins; settings: human plasma, ultrafiltration
Protocol: Therefore, the compounds were labeled with ^177Lu at a specific activity of 50 MBq/nmol and incubated in human plasma samples or PBS at room temperature. The free and plasma-bound fractions were separated using a centrifree ultrafiltration device (4104 centrifugal filter units [Millipore]; 30000 Da nominal molecular weight limit, methylcellulose micropartition membranes). The incubated solution was loaded to the ultrafiltration device and centrifuged at 2500 rpm for 40 min at 20° C. Samples from the filtrate were taken an analyzed for radioactivity in a gamma-counter. The amount of plasma-bound compound was calculated as the fraction of radioactivity measured in the filtrate relative to the corresponding loading solution (set to 100%).
Determination of Albumin-binding Properties. The binding of the radioligands to human plasma proteins was determined by an ultrafiltration assay. […] Three independent experiments were performed in duplicates with both radioligands and the data was fitted to a semi-logarithmic plot (non-linear regression, one-site, specific binding) to obtain the half maximum binding (B50) in GraphPad Prism software (version 7).
The ^177Lu-labeled PSMA ligands (50 MBq/nmol) were diluted in mouse plasma (Rockland, USA) and human plasma (Stiftung Blutspende SRK Aargau-Solothurn, Switzerland), respectively, and incubated for 15 min at room temperature. In addition, the radioligands were diluted in PBS (buffer solution without proteins) as a control experiment. Aliquots of the solutions were loaded onto an ultrafiltration device and centrifuged. The filtered activity was measured with a γ-counter and used for calculating the plasma protein-bound activity (retained on the filter membrane) as the percentage of total added activity. […] Statistical analysis (one-way ANOVA with Bonferroni's multiple comparison post-test) was performed using GraphPad Prism software, version 7. A p-value of <0.05 was considered statistically significant.

[2] = tested on: PC-3 PIP/flu tumor-bearing mice; experiment: Biodistribution studies in PC-3 PIP/flu tumor-bearing mice; settings: for Tumor-to-blood / Tumor-to-kidney / Tumor-to-liver: PC-3 PIP tumor
[3] = non-decay-corrected biodistribution data up to 192 h p.i.

SMILES: O=C(O)CCC(NC(=O)NC(CCCCNC(=O)C(Cc1ccc2ccccc2c1)NC(=O)C1CCC(CNC(=O)C(CCCCNC(=O)CN2CCN(CC(=O)O)CCN(CC(=O)O)CCN(CC(=O)O)CC2)NC(=O)CC(NC(=O)CC(NC(=O)CCCc2ccc(I)cc2)C(=O)O)C(=O)O)CC1)C(=O)O)C(=O)O (stereo not shown) [^177Lu-PSMA-ALB-05, metal not drawn]
- plasma protein-bound fraction (mouse plasma proteins): 77±2.1%
- cell uptake ([1]; 2 h): 52-57%
- internalized fraction ([1]; 2 h): 18-24%
- cell uptake ([1]; 4 h): 60-63%
- internalized fraction ([1]; 4 h): 20-26%
- plasma protein-bound fraction (human plasma proteins): 95±0.6%
- Tumor-to-blood ([2]; 1 h p.i.): 2.31 ± 0.58
- Tumor-to-kidney ([2]; 1 h p.i.): 0.79 ± 0.02
- Tumor-to-liver ([2]; 1 h p.i.): 8.65 ± 2.21
- Blood ([2]; 4 h p.i.): 10.2 ± 1.98 % IA/g
- Bone ([2]; 4 h p.i.): 1.67 ± 0.27 % IA/g
- Heart ([2]; 4 h p.i.): 3.82 ± 0.63 % IA/g
- Intestines ([2]; 4 h p.i.): 1.33 ± 0.25 % IA/g
- Kidneys ([2]; 4 h p.i.): 52.8 ± 7.17 % IA/g
- Liver ([2]; 4 h p.i.): 2.96 ± 0.50 % IA/g
- Lung ([2]; 4 h p.i.): 7.07 ± 1.44 % IA/g
- Muscle ([2]; 4 h p.i.): 1.30 ± 0.23 % IA/g
- PC-3 PIP Tumor ([2]; 4 h p.i.): 75.3 ± 15.3 % IA/g
- PC-3 flu Tumor ([2]; 4 h p.i.): 2.10 ± 0.20 % IA/g
- Salivary glands ([2]; 4 h p.i.): 2.75 ± 0.72 % IA/g
- Spleen ([2]; 4 h p.i.): 3.29 ± 0.74 % IA/g
- Stomach ([2]; 4 h p.i.): 1.15 ± 0.17 % IA/g
- Tumor-to-blood ([2]; 4 h p.i.): 7.43 ± 1.43
- Tumor-to-kidney ([2]; 4 h p.i.): 1.42 ± 0.19
- Tumor-to-liver ([2]; 4 h p.i.): 25.6 ± 4.58
- Blood ([2]; 24 h p.i.): 1.67 ± 0.29 % IA/g
- Bone ([2]; 24 h p.i.): 0.31 ± 0.08 % IA/g
- Heart ([2]; 24 h p.i.): 0.65 ± 0.11 % IA/g
- Intestines ([2]; 24 h p.i.): 0.28 ± 0.05 % IA/g
- Kidneys ([2]; 24 h p.i.): 23.9 ± 4.02 % IA/g
- Liver ([2]; 24 h p.i.): 0.82 ± 0.35 % IA/g
- Lung ([2]; 24 h p.i.): 1.80 ± 0.78 % IA/g
- Muscle ([2]; 24 h p.i.): 0.19 ± 0.06 % IA/g
- PC-3 PIP Tumor ([2]; 24 h p.i.): 79.4 ± 11.1 % IA/g
- PC-3 flu Tumor ([2]; 24 h p.i.): 0.59 ± 0.10 % IA/g
- Salivary glands ([2]; 24 h p.i.): 0.49 ± 0.10 % IA/g
- Spleen ([2]; 24 h p.i.): 1.13 ± 0.23 % IA/g
- Stomach ([2]; 24 h p.i.): 0.28 ± 0.06 % IA/g
- Tumor-to-blood ([2]; 24 h p.i.): 48.2 ± 7.04 and 48 ± 6.4
- Tumor-to-kidney ([2]; 24 h p.i.): 3.38 ± 0.58 and 3.4 ± 0.5
- Tumor-to-liver ([2]; 24 h p.i.): 106 ± 28.6 and 106 ± 26
- Blood ([2]; 48 h p.i.): 1.66 ± 0.37 % IA/g
- Bone ([2]; 48 h p.i.): 0.28 ± 0.05 % IA/g
- Heart ([2]; 48 h p.i.): 0.54 ± 0.15 % IA/g
- Intestines ([2]; 48 h p.i.): 0.28 ± 0.10 % IA/g
- Kidneys ([2]; 48 h p.i.): 12.8 ± 2.62 % IA/g
- Liver ([2]; 48 h p.i.): 0.56 ± 0.16 % IA/g
- Lung ([2]; 48 h p.i.): 1.48 ± 0.62 % IA/g
- Muscle ([2]; 48 h p.i.): 0.20 ± 0.08 % IA/g
- PC-3 PIP Tumor ([2]; 48 h p.i.): 60.3 ± 10.7 % IA/g
- PC-3 flu Tumor ([2]; 48 h p.i.): 0.57 ± 0.09 % IA/g
- Salivary glands ([2]; 48 h p.i.): 0.45 ± 0.10 % IA/g
- Spleen ([2]; 48 h p.i.): 0.71 ± 0.23 % IA/g
- Stomach ([2]; 48 h p.i.): 0.29 ± 0.08 % IA/g
- Tumor-to-blood ([2]; 48 h p.i.): 36.7 ± 1.81 and 38 ± 2.5
- Tumor-to-kidney ([2]; 48 h p.i.): 4.72 ± 0.18 and 5.0 ± 0.7
- Tumor-to-liver ([2]; 48 h p.i.): 110 ± 12.2 and 100 ± 32
- Blood ([2]; 96 h p.i.): 1.79 ± 0.57 % IA/g
- Bone ([2]; 96 h p.i.): 0.28 ± 0.04 % IA/g
- Heart ([2]; 96 h p.i.): 0.70 ± 0.21 % IA/g
- Intestines ([2]; 96 h p.i.): 0.30 ± 0.11 % IA/g
- Kidneys ([2]; 96 h p.i.): 6.89 ± 0.31 % IA/g
- Liver ([2]; 96 h p.i.): 0.74 ± 0.14 % IA/g
- Lung ([2]; 96 h p.i.): 1.36 ± 0.29 % IA/g
- Muscle ([2]; 96 h p.i.): 0.15 ± 0.06 % IA/g
- PC-3 PIP Tumor ([2]; 96 h p.i.): 45.0 ± 7.94 % IA/g
- PC-3 flu Tumor ([2]; 96 h p.i.): 0.49 ± 0.11 % IA/g
- Salivary glands ([2]; 96 h p.i.): 0.46 ± 0.10 % IA/g
- Spleen ([2]; 96 h p.i.): 0.64 ± 0.29 % IA/g
- Stomach ([2]; 96 h p.i.): 0.24 ± 0.07 % IA/g
- Tumor-to-blood ([2]; 96 h p.i.): 27.1 ± 10.0
- Tumor-to-kidney ([2]; 96 h p.i.): 6.51 ± 0.98
- Tumor-to-liver ([2]; 96 h p.i.): 62.8 ± 18.8
- Blood ([2]; 144 h p.i.): 1.75 ± 0.35 % IA/g
- Bone ([2]; 144 h p.i.): 0.25 ± 0.05 % IA/g
- Heart ([2]; 144 h p.i.): 0.65 ± 0.17 % IA/g
- Intestines ([2]; 144 h p.i.): 0.27 ± 0.05 % IA/g
- Kidneys ([2]; 144 h p.i.): 4.28 ± 0.26 % IA/g
- Liver ([2]; 144 h p.i.): 0.72 ± 0.13 % IA/g
- Lung ([2]; 144 h p.i.): 1.25 ± 0.18 % IA/g
- Muscle ([2]; 144 h p.i.): 0.17 ± 0.04 % IA/g
- PC-3 PIP Tumor ([2]; 144 h p.i.): 33.9 ± 0.80 % IA/g
- PC-3 flu Tumor ([2]; 144 h p.i.): 0.52 ± 0.13 % IA/g
- Salivary glands ([2]; 144 h p.i.): 0.46 ± 0.09 % IA/g
- Spleen ([2]; 144 h p.i.): 0.56 ± 0.08 % IA/g
- Stomach ([2]; 144 h p.i.): 0.23 ± 0.04 % IA/g
- Tumor-to-blood ([2]; 144 h p.i.): 19.9 ± 3.88
- Tumor-to-kidney ([2]; 144 h p.i.): 7.93 ± 0.30
- Tumor-to-liver ([2]; 144 h p.i.): 47.9 ± 8.28
- Blood ([2]; 192 h p.i.): 1.48 ± 0.13 % IA/g
- Bone ([2]; 192 h p.i.): 0.26 ± 0.04 % IA/g
- Heart ([2]; 192 h p.i.): 0.59 ± 0.05 % IA/g
- Intestines ([2]; 192 h p.i.): 0.24 ± 0.04 % IA/g
- Kidneys ([2]; 192 h p.i.): 2.70 ± 0.36 % IA/g
- Liver ([2]; 192 h p.i.): 0.84 ± 0.06 % IA/g
- Lung ([2]; 192 h p.i.): 1.22 ± 0.26 % IA/g
- Muscle ([2]; 192 h p.i.): 0.14 ± 0.01 % IA/g
- PC-3 PIP Tumor ([2]; 192 h p.i.): 27.9 ± 3.24 % IA/g
- PC-3 flu Tumor ([2]; 192 h p.i.): 0.45 ± 0.06 % IA/g
- Salivary glands ([2]; 192 h p.i.): 0.37 ± 0.04 % IA/g
- Spleen ([2]; 192 h p.i.): 0.55 ± 0.10 % IA/g
- Stomach ([2]; 192 h p.i.): 0.16 ± 0.04 % IA/g
- Tumor-to-blood ([2]; 192 h p.i.): 19.0 ± 2.97
- Tumor-to-kidney ([2]; 192 h p.i.): 10.4 ± 0.25
- Tumor-to-liver ([2]; 192 h p.i.): 33.4 ± 1.64
- AUC PC-3 PIP tumor [2, 3]: 6741 ± 421 % IA/g · h
- AUC blood [2, 3]: 387 ± 32 % IA/g · h
- AUC kidneys [2, 3]: 1837 ± 112 % IA/g · h
- AUC liver [2, 3]: 131 ± 11 % IA/g · h
- Ratio of AUCs AUCTu-to-AUCBl ([2]; tumor to blood): 17
- Ratio of AUCs AUC-Tu-to-AUC-Ki ([2]; tumor to kidneys): 3.7
- Ratio of AUCs AUCTu-to-AUCLi ([2]; tumor to liver): 52
